Assay results from PubChem BioAssay (NCI).
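Cells were grown in 96-well plates and exposed to each compound for 48 hours at five concentrations; endpoints were interpolated linearly between bracketing concentrations, or set to the highest concentration if not reached. At the GI50, growth is halved. The concentration for full growth arrest is given as TGI.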

Experiments:
Assay in all cases: NCI anticancer screen, dose series, 48 h
NCI-H460 lung = system: NCI-H460 lung
NCI-H522 lung = system: NCI-H522 lung
NCI/ADR-RES ovarian = system: NCI/ADR-RES ovarian
OVCAR-3 ovarian = system: OVCAR-3 ovarian
OVCAR-4 ovarian = system: OVCAR-4 ovarian
OVCAR-5 ovarian = system: OVCAR-5 ovarian
OVCAR-8 ovarian = system: OVCAR-8 ovarian
PC-3 prostate = system: PC-3 prostate
RPMI-8226 leukemia = system: RPMI-8226 leukemia
RXF 393 renal = system: RXF 393 renal
SF-268 CNS = system: SF-268 CNS
SF-295 CNS = system: SF-295 CNS
SF-539 CNS = system: SF-539 CNS
SK-MEL-2 melanoma = system: SK-MEL-2 melanoma
SK-MEL-28 melanoma = system: SK-MEL-28 melanoma
SK-MEL-5 melanoma = system: SK-MEL-5 melanoma
SK-OV-3 ovarian = system: SK-OV-3 ovarian
SN12C renal = system: SN12C renal
SNB-19 CNS = system: SNB-19 CNS
SNB-75 CNS = system: SNB-75 CNS
SR leukemia = system: SR leukemia
SW-620 colon = system: SW-620 colon
T-47D breast = system: T-47D breast
U251 CNS = system: U251 CNS
UACC-257 melanoma = system: UACC-257 melanoma
UACC-62 melanoma = system: UACC-62 melanoma
UO-31 renal = system: UO-31 renal

Q: `COc1cc(-c2cc(-c3cc(OC)c(OC)c(OC)c3)nc3nc(N)[nH]c(=O)c23)ccc1Oc1ccnc2cc(Cl)ccc12` was tested. Which TGI (NCI-H460 lung) did it give?
A: Its TGI is 37.7 µM.

Q: And the GI50 (NCI-H522 lung)?
A: The GI50 was 2.13 µM.

Q: What about the TGI (NCI-H522 lung) of the same molecule?
A: The TGI was 15.5 µM.

Q: What about the GI50 (NCI/ADR-RES ovarian) of the same molecule?
A: Its GI50 is 2.14 µM.

Q: What about the TGI (NCI/ADR-RES ovarian) of the same molecule?
A: The TGI was over 100 µM.

Q: And the GI50 (OVCAR-3 ovarian)?
A: Its GI50 is 0.736 µM.

Q: What about the TGI (OVCAR-3 ovarian) of the same molecule?
A: The TGI was 13.6 µM.

Q: And the GI50 (OVCAR-4 ovarian)?
A: The GI50 was 4.34 µM.

Q: And the TGI (OVCAR-4 ovarian)?
A: The TGI was over 100 µM.

Q: And the GI50 (OVCAR-5 ovarian)?
A: Its GI50 is 4.76 µM.

Q: And the TGI (OVCAR-5 ovarian)?
A: Its TGI is over 100 µM.

Q: What about the GI50 (OVCAR-8 ovarian) of the same molecule?
A: The GI50 was 3.17 µM.

Q: What about the TGI (OVCAR-8 ovarian) of the same molecule?
A: The TGI was 79.5 µM.

Q: And the GI50 (PC-3 prostate)?
A: Its GI50 is 3.18 µM.

Q: What about the TGI (PC-3 prostate) of the same molecule?
A: The TGI was over 100 µM.

Q: What about the GI50 (RPMI-8226 leukemia) of the same molecule?
A: The GI50 was 2.52 µM.

Q: What about the TGI (RPMI-8226 leukemia) of the same molecule?
A: Its TGI is 10.2 µM.

Q: What about the GI50 (RXF 393 renal) of the same molecule?
A: Its GI50 is 2.81 µM.

Q: What about the TGI (RXF 393 renal) of the same molecule?
A: Its TGI is 9.35 µM.

Q: And the GI50 (SF-268 CNS)?
A: Its GI50 is 3.43 µM.

Q: And the TGI (SF-268 CNS)?
A: Its TGI is over 100 µM.

Q: What about the GI50 (SF-295 CNS) of the same molecule?
A: Its GI50 is 4.52 µM.

Q: What about the TGI (SF-295 CNS) of the same molecule?
A: The TGI was 85.5 µM.

Q: What about the GI50 (SF-539 CNS) of the same molecule?
A: Its GI50 is 1.16 µM.

Q: And the TGI (SF-539 CNS)?
A: The TGI was 3.18 µM.

Q: And the GI50 (SK-MEL-2 melanoma)?
A: Its GI50 is 2.25 µM.

Q: And the TGI (SK-MEL-2 melanoma)?
A: The TGI was 7.68 µM.

Q: And the GI50 (SK-MEL-28 melanoma)?
A: The GI50 was 4.75 µM.

Q: What about the TGI (SK-MEL-28 melanoma) of the same molecule?
A: The TGI was over 100 µM.

Q: And the GI50 (SK-MEL-5 melanoma)?
A: The GI50 was 2.93 µM.

Q: And the TGI (SK-MEL-5 melanoma)?
A: The TGI was 13.3 µM.

Q: What about the GI50 (SK-OV-3 ovarian) of the same molecule?
A: The GI50 was 2.95 µM.

Q: And the TGI (SK-OV-3 ovarian)?
A: The TGI was 9.36 µM.

Q: What about the GI50 (SN12C renal) of the same molecule?
A: The GI50 was 3.83 µM.

Q: What about the TGI (SN12C renal) of the same molecule?
A: Its TGI is 41.8 µM.

Q: And the GI50 (SNB-19 CNS)?
A: The GI50 was 6.62 µM.

Q: What about the TGI (SNB-19 CNS) of the same molecule?
A: The TGI was over 100 µM.

Q: What about the GI50 (SNB-75 CNS) of the same molecule?
A: Its GI50 is 1.9 µM.

Q: And the TGI (SNB-75 CNS)?
A: Its TGI is over 100 µM.

Q: And the GI50 (SR leukemia)?
A: The GI50 was 0.468 µM.

Q: And the TGI (SR leukemia)?
A: The TGI was 29.6 µM.

Q: What about the GI50 (SW-620 colon) of the same molecule?
A: Its GI50 is 1.35 µM.

Q: And the TGI (SW-620 colon)?
A: The TGI was over 100 µM.

Q: What about the GI50 (T-47D breast) of the same molecule?
A: The GI50 was 5.22 µM.

Q: What about the TGI (T-47D breast) of the same molecule?
A: The TGI was 58 µM.

Q: What about the GI50 (U251 CNS) of the same molecule?
A: The GI50 was 2.46 µM.

Q: What about the TGI (U251 CNS) of the same molecule?
A: Its TGI is 7.32 µM.

Q: And the GI50 (UACC-257 melanoma)?
A: The GI50 was 7.08 µM.

Q: And the TGI (UACC-257 melanoma)?
A: The TGI was 60.8 µM.

Q: And the GI50 (UACC-62 melanoma)?
A: The GI50 was 3.55 µM.

Q: And the TGI (UACC-62 melanoma)?
A: Its TGI is 25.2 µM.

Q: And the GI50 (UO-31 renal)?
A: Its GI50 is 3.45 µM.

Q: And the TGI (UO-31 renal)?
A: The TGI was over 100 µM.
